Results as given in patent US20260215425A1, “NITRIFICATION INHIBITORS” (The University of Melbourne, priority 2022, published 2026).

Experiments:
N. europaea = test: standard nitrification inhibition assay (NO2- production, Griess); assay type: cell-based, Nitrosomonas europaea; conditions: [NH4+]=3 mM, [inhibitor]=0.3 mM (10 mol %), pH 7.5, 30° C., 60 min
Experimental: (§1) Cells of N. multiformis and N. europaea were cultivated to the mid-exponential growth phase (OD600=0.1, [NO2^−] approximately 800 μM) and harvested by filtration onto 0.2 μm membrane filters (Mixed Cellulose Ester (MCE), Sigma Aldrich). The cells were washed with 2×100 mL of 0.1 M sodium phosphate buffer (NaPB), containing 0.2 mM MgSO4 at pH 7.5. The cells were washed from the filter paper by transferring it to a sterile 50 mL tube and resuspending in NaPB (15 mL), followed by 5 s of vortexing (Ratek, Australia) and 3 s of sonication (Vevor, Australia). […] Experiments were performed in triplicate.
(§2) In a deep 96-well plate (2 mL capacity), 980 μL of the bacterial inoculum (OD600=0.03) was added to the inhibitor (10 μL, 30 mmol L^−1 in Milli-Q water), the solutions were mixed thoroughly and pre-incubated in the dark for 5 minutes at 100 rpm and 30° C. (NH4)2SO4 (10 μL, 150 mM, from a prepared sterile solution containing 19.8 g L^−1 (NH4)2SO4 in Milli-Q water) was then added using a multi-channel pipette. The plate was covered with a with an O2 permeable membrane to ensure aeration (Breathe-Easy® sealing membrane, Sigma Aldrich) and incubated in a temperature-regulated rotary incubator (Ratek, Australia) in the dark for 60 minutes at 30° C. and 100 rpm. An aliquot of the reaction solution ([…]) was transferred to a 96-well spectrophotometric plate to which 50 µL of Griess reagent was added. The colour was allowed to develop for 15 minutes at room temperature, and the absorbance was measured at 540 nm. Each assay was accompanied by control treatments to determine the 0% and 100% NO2 signal. The percentage inhibition was calculated according to eqn. 1 from the NO2 production of the cells in NaPB (i) without additive (‘untreated cells’: 0% signal), (ii) with [NH4^+]=3 mM (‘uninhibited’ cells: 100% signal) and (iii) with [NH4^+]=3 mM and [inhibitor]=0.3 mM and 0.03 mM (10 mol % and 1 mol % of [NH4^+], ‘inhibited cells’). Experiments were performed in triplicate.

N. multiformis = test: as above; assay type: cell-based, Nitrosospira multiformis; conditions: [NH4+]=3 mM, [inhibitor]=0.3 mM (10 mol %), pH 7.5, 30° C., 60 min
Experimental: as §1, §2

soil A = test: soil incubation, NH4+ and NO3- in soil A; conditions: 5 mol % of applied fertiliser-N, 21 days
Experimental: Soils used in these studies were air-dried, ground and sieved (2 mm) prior to use. Soil microcosm incubations were carried out in 250 mL polypropylene specimen containers (Sarstedt, Germany), containing 20 g oven dry-weight equivalent of soil. Microcosms were treated with half the volume of water required to meet the desired water-filled pore space (WFPS %) of 60% and pre-incubated at 25° C. for seven days to revive soil microbial activity. Following pre-incubation, the remaining volume to reach the WFPS % was applied as one of the treatment solutions: (1) fertiliser ((NH4)2SO4,) 100 mg kg^−1, (2) fertiliser+0.5 mol % 4-MPT, (3) fertiliser+2.5 mol % 4-MPT, (4) fertiliser+5 mol % 4-MPT or (5) fertiliser+5 mol % compound 1, with three replicates of each treatment per time interval (n=3). Throughout the incubation period soil microcosms were kept aerated by removing the lid for 10 minutes every 2-3 days to allow gas exchange, and moisture levels were replenished via addition of Milli-Q water as required. At the end of the desired incubation period (i.e., after 0, 3, 7, 14, and 21 days, respectively), soil microcosms were removed and destructively sampled by treating with 2 M aqueous potassium chloride solution (KCl, 100 mL) and shaking for 1 h. Soil-KCl solutions were filtered (Whatman No. 42), and the filtrates were stored at −20° C. until the conclusion of the experiment, when all KCl extracts were analysed for the concentration of soil mineral nitrogen from ammonium (NH4^+—N) and from nitrate (NO3^−—N; the conversion of NO2 to NO3^− in soils is very rapid) after appropriate dilutions using Segmented Flow Analysis (San++, Skalar, Breda, The Netherlands). Results are reported as the mean of three replicates, errors reported are standard errors of the mean. Errors associated with raw data were carried through calculations using standard error propagation protocols.
To determine the nitrification inhibitory effect of 4-MPT in vivo, soil incubations were performed by measuring concentration-time profiles for NH4^+ and NO3^− in an acidic Australian soil (soil A, pH=5.9) over 21 days. 4-MPT was tested at three different concentrations (0.5 mol %, 2.5 mol % and 5 mol % of applied fertiliser-N) and compared with the alkyl-substituted compound 1 (5 mol % of applied fertiliser-N) to confirm the requirement of the N-propargyl substitutent for inhibitory activity (FIG. 5).

SMILES	% Inhibition NE (N. europaea)	% Inhibition NM (N. multiformis)	NH4+ loss / conversion in soil (soil A)
CCCn1cc(C)nn1 [Compound 1, 4-Methyl-1-(n-propyl)-1H-1,2,3-triazole]	complete loss of inhibitory activity	complete loss of inhibitory activity	negligible levels of NH4^+ remaining after 21 days of incubation
C#CCCn1cc(CCC)nn1 [Compound 2]	21 ± 2%	40 ± 1%	–
C#CCOC(=O)Cn1cc(CCC)nn1 [Compound 3]	49 ± 2%	47 ± 2%	–
C#CCNC(=O)Cn1cc(CCC)nn1 [Compound 4]	7.1 ± 1%	–	–
CCCCn1cc(CCC)nn1 [Compound N013]	60 ± 1%	54 ± 2%	–
